# Laboratory results from paper PMC12730722, “Identification and Functional Characterization of the Leg-Enriched Chemosensory Protein PxylCSP9 in Plutella xylostella (Lepidoptera: Plutellidae)” (Biology, 2025).
# Columns and labels:
# [1] = system: P. xylostella; set-up: key to behavioral effect of plant volatile on P. xylostella (attractive / repellent): Refers to plant volatiles that are attractive to P. xylostella; b: Refers to plant volatiles that are repellent to P. xylostella; conditions: cited from earlier work; for behavioral effect of plant volatile on P. xylostella (attractive / repellent): footnote marks of Table 2, ref 37,45,46,47,48 (a), ref 49,50,51 (b)
# [2] = system: P. xylostella; set-up: method as in doi:10.1111/j.1744-7917.2004.tb00178.x, doi:10.1111/jen.13144, PMID 29474734; conditions: cited from earlier work
# [3] = target: T1, PxylCSP9 (Plutella xylostella, UniProt A0A8S4FJE6); test: Fluorescence competitive binding assay (Bis-ANS probe displacement)
# T1 sequence (A0A8S4FJE6 entry or part of it): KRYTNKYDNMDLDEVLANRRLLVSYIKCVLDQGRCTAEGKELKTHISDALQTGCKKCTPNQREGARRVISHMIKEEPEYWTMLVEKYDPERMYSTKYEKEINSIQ
# Protocol: The purity of all ligands and the fluorescent probe 4,4′-dianilino-1,1′-binaphthyl-5,5′-sulfonate (Bis-ANS) was ≥95%, which was purchased from Aladdin (Shanghai, China) or Sigma-Aldrich (St. Louis, MO, USA.). All the compounds were dissolved individually in chromatography-grade methanol (Aladdin, Shanghai, China) to prepare 1 mM stock solutions. […] The excitation and emission slit widths were both set to 5 nm. The excitation wavelength of the fluorescent probe was 365 nm, and the emission spectra were recorded from 400 to 580 nm.
# In competitive binding assays, the ligand concentrations ranging from 0 to 10 μM were added to a solution containing PxylCSP9 (1 μM) and Bis-ANS (1 μM). All data were analyzed based on the assumptions that the protein was 100% active and that binding followed a 1:1 stoichiometry (protein:ligand) at saturation. The binding curves for Bis-ANS were linearized using a Scatchard plot. The dissociation constants of the competitors were calculated from their corresponding IC50 values using the following equation: Ki = [IC50]/(1 + [Bis-ANS]/KBis-ANS), where IC50 is the ligand concentration that reduces the initial fluorescence intensity of Bis-ANS by half, [Bis-ANS] is the free concentration of Bis-ANS, and KBis-ANS is the dissociation constant of the PxylCSP9/Bis-ANS complex.
# [4] = system: certain lepidopteran insects; set-up: method as in PMID 40195004, doi:10.1023/A:1020990018111, doi:10.1023/A:1020750029362; conditions: cited from earlier work
# [5] = target: T1, PxylCSP9; test: Binding of fluorescent probe Bis-ANS to PxylCSP9 (titration, Scatchard plot); conditions: 1 μM protein, 50 mM Tris-HCl pH 7.4, probe 1 to 10 μM, read-out: dissociation constant of PxylCSP9/Bis-ANS complex
# Protocol: To identify the ligands that bind to PxylCSP9, we selected several typical chemical components from the host plants of P. xylostella for fluorescence competitive binding experiments. The purity of all ligands and the fluorescent probe 4,4′-dianilino-1,1′-binaphthyl-5,5′-sulfonate (Bis-ANS) was ≥95%, which was purchased from Aladdin (Shanghai, China) or Sigma-Aldrich (St. Louis, MO, USA.). All the compounds were dissolved individually in chromatography-grade methanol (Aladdin, Shanghai, China) to prepare 1 mM stock solutions. Fluorescence competitive binding assays were performed using an RF-5301 Fluorescence Spectrophotometer (Shimadzu, Kyoto, Japan) with a quartz cuvette of a 1 cm path length. The excitation and emission slit widths were both set to 5 nm. The excitation wavelength of the fluorescent probe was 365 nm, and the emission spectra were recorded from 400 to 580 nm.
# The affinity of Bis-ANS for PxylCSP9 was measured by titrating a 1 μM solution of the protein in 50 mM Tris-HCl (pH 7.4) with aliquots of 1 mM Bis-ANS stock solution to final probe concentrations ranging from 1 to 10 μM. In competitive binding assays, the ligand concentrations ranging from 0 to 10 μM were added to a solution containing PxylCSP9 (1 μM) and Bis-ANS (1 μM). […]
smiles,measurement,setting,value
C=CC(C)(O)CCC=C(C)C (centres unmarked) [Linalool],behavioral effect of plant volatile on P. xylostella (attractive / repellent),[1],Linalool ^b
C=CC(=C)CCC=C(C)C [Myrcene],EAG response of P. xylostella,[2],effectively stimulate the EAG response
same,behavioral avoidance response of P. xylostella,[1],significantly induce its behavioral avoidance response
same,behavioral effect of plant volatile on P. xylostella (attractive / repellent),[1],Myrcene ^b
CCCCCCCC(C)C [2-Methylnonane],behavioral effect of plant volatile on P. xylostella (attractive / repellent),[1],2-Methylnonane ^b
C=CCN=C=S [Allyl isothiocyanate],feeding and oviposition behaviors in P. xylostella,[1],induce feeding and oviposition behaviors
"CCCC(C)CC(C)C (centres unmarked) [2,4-Dimethylheptane]",behavioral effect of plant volatile on P. xylostella (attractive / repellent),[1],"2,4-Dimethylheptane ^b"
CC(=O)CCC=C(C)C [Methyl heptenone],IC50,"[3]; PxylCSP9 1 μM, Bis-ANS 1 μM, 50 mM Tris-HCl pH 7.4, ligand concentration halving Bis-ANS fluorescence",20.1 ± 1.98 µM
same,Ki,[3]; calculated from IC50: Ki = [IC50]/(1 + [Bis-ANS]/KBis-ANS),17 µM
CCC/C=C/C=O [(E)-2-Hexenal],behavioral effect of plant volatile on P. xylostella (attractive / repellent),[1],(E)-2-Hexenal ^a
CC1=CC=C(C(C)C)CC1 [α-Terpinene],EAG response of P. xylostella,[2],effectively stimulate the EAG response
same,behavioral avoidance response of P. xylostella,[1],significantly induce its behavioral avoidance response
same,oviposition deterrent effects,[1],oviposition deterrent effects
same,behavioral effect of plant volatile on P. xylostella (attractive / repellent),[1],α-Terpinene ^b
OCCc1ccccc1 [Phenethyl alcohol],EAG responses and attractive behaviors,[4],elicit electroantennogram (EAG) responses and attractive behaviors
same,behavioral effect of plant volatile on P. xylostella (attractive / repellent),[1],Phenethyl alcohol ^a
"O=S(=O)(O)c1cccc2c(-c3ccc(Nc4ccccc4)c4c(S(=O)(=O)O)cccc34)ccc(Nc3ccccc3)c12 [Bis-ANS, 4,4′-dianilino-1,1′-binaphthyl-5,5′-sulfonate]",Kd,[5],4.86 ± 0.04 µM
C=C(C)[C@@H]1CC=C(C)C(=O)C1 [(R)-(-)-Carvone],behavioral effect of plant volatile on P. xylostella (attractive / repellent),[1],(R)-(-)-Carvone ^b
C=C(C)C1CC=C(C)CC1 (centres unmarked) [Limonene],EAG response of P. xylostella,[2],effectively stimulate the EAG response
same,behavioral avoidance response of P. xylostella,[1],significantly induce its behavioral avoidance response
same,oviposition deterrent effects,[1],oviposition deterrent effects
same,behavioral effect of plant volatile on P. xylostella (attractive / repellent),[1],Limonene ^b
CCCCCCCCC=O [1-Nonanal],behavioral effect of plant volatile on P. xylostella (attractive / repellent),[1],1-Nonanal ^a
